Measurements taken from patent US20230381330A1, “ENZYME-ACTIVATED SERUM EXTENDED HALF-LIFE THERAPEUTIC CONJUGATES” (Avacta Life Sciences Limited, priority 2020, published 2023).

Experiments:
[1] = system: J774A.1 mouse macrophage cell line cells; assay: LDH release (pyroptosis) in J774A.1 cells with or without rhFAPα; assay type: cell-based; conditions: serial 10-fold dilutions, rhFAPα 25 nM, 24 hours, FIG. 17
Method: In further in vitro studies, several conjugates were tested for their ability to induce pyroptosis in J774 cells in the absence and presence of FAPα. Briefly, J774A.1 mouse macrophage cell line cells were cultured in triplicate wells with serial 10-fold dilutions of either VbP (data not shown) or one of the FAP-activated I-DASH inhibitors (Hu IgG1 Fc-6325, Hu IgG1-6325, MSA-6325, SQT-Gly V.2-6325, SQT-Gly CF-6325 or SQT-Gly CG-6325) in the presence or absence of rhFAPα at a final concentration of 25 nM for 24 hours. Each experiment included an untreated control. Following the incubation, the levels of lactate dehydrogenase (LDH, a marker of pyroptosis) released into culture supernatants were measured using the CytoTox 96 Non-radioactive Cytotoxicity Assay according to the manufacturer's instructions. The results are shown in FIG. 17 as fold-increase in LDH release.

mouse tumor model = assay: EC50 / maximum tolerated dose studies in mice; assay type: in vivo; conditions: FIG. 4A/4B
Method: (§1) Half-maximal effective concentration (EC50) studies were undertaken to examine the difference between mice and rats administered talabostat alone (FIG. 4A) and mice and rats administered the therapeutic conjugates comprising talabostat (FIG. 4B). When talabostat is administered alone, the talabostat maximum tolerated dose (MTD) is about 3 mg/m^2 in a mouse tumor model and 0.18 mg/m^2 in rats. That is, the talabostat MTD is 1/17 the tumor model EC50 (FIG. 4A). […] Talabostat, as part of the therapeutic conjugate, can be administered to rats and mice at therapeutically effective doses.

rats = assay: EC50 / maximum tolerated dose studies in rats; assay type: in vivo, rat; conditions: talabostat administered alone, FIG. 4A
Method: as §1

G-CSF = conditions: mouse, in vivo; cited from earlier work

SMILES: CC(C)[C@H](N)C(=O)N1CCC[C@H]1B(O)O [talabostat, Val-boroPro]
- differentiation of fold-increase in LDH release with vs without FAPα [1]: not the case
- maximum tolerated dose (MTD) (mouse tumor model): about 3 mg/m^2
- maximum tolerated dose (MTD) (rats; rats): 0.18 mg/m^2
- MTD as fraction of the tumor model EC50 (rats): 1/17
- serum G-CSF response (G-CSF): large serum G-CSF response
